According to US8815909B2, “Diaminocyclohexane compounds and uses thereof” (Bristol-Myers Squibb Company, priority 2011, dated 2014):
Where two headings read alike, the source gives them in different places.

Biological target: T1, human Y4 receptor (Homo sapiens, UniProt P50391)
T1 construct: expressed in transfected cells
Assay: NPY4 cAMP HTRF Agonist Assay (inhibitory cAMP assay, Gi activation by Y4 agonism)
Type: cell-based
Summary of the method: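 Y4 agonism read as lowered forskolin-stimulated cAMP (HTRF, 1 h detection at room temperature). Stable human Y4 CHO clone, 5000 cells/well, incubated 30 min at room temperature with compounds plus forskolin and IBMX in PBS.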

[1] = human Y4 stable CHO clonal cells, forskolin + IBMX, read-out: NPY4 cAMP HTRF Agonist Assay EC50
[2] = TABLE 7, R2 is Pyridinyl-oxadiazole-CH3, read-out: hY4 CAMP EC50
[3] = human Y4 receptor, cAMP, read-out: hY4 CAMP EC50
[4] = second TABLE 1, R2 is Phenyl-CF3, read-out: hY4 CAMP EC50
[5] = TABLE 2, R2 is Phenyl-CN, read-out: hY4 CAMP EC50

T1 sequence (P50391 whole entry): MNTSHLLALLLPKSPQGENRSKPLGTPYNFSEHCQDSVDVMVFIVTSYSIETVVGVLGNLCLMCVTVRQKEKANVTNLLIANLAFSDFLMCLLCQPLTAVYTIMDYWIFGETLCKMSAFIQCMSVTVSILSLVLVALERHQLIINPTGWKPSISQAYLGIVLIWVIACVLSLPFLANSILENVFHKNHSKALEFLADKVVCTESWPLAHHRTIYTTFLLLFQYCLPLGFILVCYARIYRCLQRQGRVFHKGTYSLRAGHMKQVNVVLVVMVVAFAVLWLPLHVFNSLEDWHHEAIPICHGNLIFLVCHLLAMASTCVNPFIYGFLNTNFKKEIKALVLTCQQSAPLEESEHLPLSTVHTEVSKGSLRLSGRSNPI

Structure (SMILES) | EC50 [1] [nM] | EC50 [3] [nM] | further results
Cn1nccc1-c1ccnc(N[C@@H]2CCCC[C@H]2N[C@H]2CCCN(c3ccc(C#N)cc3)C2)c1 [Example 34, 4-((S)-3-((1R,2R)-2-(4-(1-Methyl-1H-pyrazol-5-yl)pyridin-2-ylamino)cyclohexylamino)piperidin-1-yl)benzonitrile tris-trifluoroacetate] | 150 | – | –
O=[N+]([O-])c1ccc(N2CCC[C@H](N[C@@H]3CCCC[C@H]3Nc3ncc(-c4ccccc4F)o3)C2)cc1 [Example 9, (1R,2R)—N1-(5-(2-Fluorophenyl)oxazol-2-yl)-N2-((S)-1-(4-nitrophenyl)piperidin-3-yl)cyclohexane-1,2-diamine] | 4 | – | –
N#Cc1ccc(N2CCC[C@H](N[C@@H]3CCCC[C@H]3Nc3ncc(-c4ccc(OC(F)(F)F)cc4)o3)C2)cc1 [Example 56, 4-((S)-3-((1R,2R)-2-(5-(4-(Trifluoromethoxy)phenyl)oxazol-2-ylamino)cyclohexylamino)piperidin-1-yl)benzonitrile] | 23 | – | –
Cc1nc(-c2ccc(N3CCC[C@H](N[C@@H]4CCCC[C@H]4Nc4ncc(-c5cccc(C(N)=O)c5)o4)C3)nc2)no1 [Example 396] | – | – | EC50 [2]: 0.2 nM
Cc1nnc(-c2ccc(N3CCC[C@H](N[C@@H]4CCCC[C@H]4Nc4ncc(-c5ccccc5)o4)C3)cc2)o1 [Example 83, (1R,2R)—N1-((S)-1-(4-(5-Methyl-1,3,4-oxadiazol-2-yl)phenyl)piperidin-3-yl)-N2-(5-phenyloxazol-2-yl)cyclohexane-1,2-diamine bis-trifluoroacetate] | 9 | – | –
NC(=O)c1cccc(-c2cnc(N[C@@H]3CCCC[C@H]3N[C@H]3CCCN(c4ccc(C(F)(F)F)cc4)C3)o2)c1 [Example 104, (3-(2-((1R,2R)-2((S)-1-(4-trifluoromethyl)phenyl)piperidin-3-ylamino)cyclohexylamino)oxazol-5-yl)benzamide] | 0.2 | – | –
N#Cc1ccc(N2CCC[C@H](N[C@@H]3CCCC[C@H]3Nc3nccc(-c4ccccc4)n3)C2)cc1Cl [Example 40, 2-Chloro-4-((S)-3-((1R,2R)-2-(4-phenylpyrimidin-2-ylamino)cyclohexylamino)piperidin-1-yl)benzonitrile bis-trifluoroacetate] | 29 | – | –
NC(=O)c1cccc(-c2ccnc(N[C@@H]3CCCC[C@H]3N[C@H]3CCCN(c4cnc(C(F)(F)F)nc4)C3)c2)c1 [Example 408] | – | 121 | –
OCCc1ccccc1-c1ccnc(N[C@@H]2CCCC[C@H]2N[C@H]2CCCN(c3ccc(C(F)(F)F)cc3)C2)c1 [Example 156] | – | – | EC50 [4]: 50 nM
CCNC(=O)Nc1cccc(-c2cnc(N[C@@H]3CCCC[C@H]3N[C@H]3CCCN(c4cnc(C(F)(F)F)nc4)C3)o2)c1 [Example 417] | – | 6 | –
O=C(Nc1nncs1)c1ccnc(N[C@@H]2CCCC[C@H]2N[C@H]2CCCN(c3ccc(C(F)(F)F)cc3)C2)c1 [Example 112] | 590 | – | –
COc1ccccc1-c1ccnc(N[C@@H]2CCCC[C@H]2N[C@H]2CCCN(c3ccc(C#N)cc3)C2)c1 [Example 262] | – | – | EC50 [5]: 116 nM
FC(F)(F)Oc1ccc(-c2cnc(N[C@@H]3CCCC[C@H]3N[C@H]3C[C@@H]4C[C@H]3N(c3cc(Cl)ncn3)C4)o2)cc1 [Example 510] | – | 82 | –
NC(=O)c1cccc(-c2ccnc(N[C@@H]3CCCC[C@H]3N[C@H]3CCCN(c4ccc5ncnn5c4)C3)c2)c1 [Example 481] | – | 34 | –
FC(F)(F)Oc1ccc(-n2nnc(N[C@@H]3CCCC[C@H]3N[C@H]3CCCN(c4ccc(C(F)(F)F)cc4)C3)n2)cc1 [Example 121] | – | – | EC50 [4]: 922 nM
COc1ccc(-c2ccnc(N[C@@H]3CCCC[C@H]3N[C@H]3CCCN(c4ccc([N+](=O)[O-])cc4)C3)n2)cc1 [Example 31, (1R,2R)—N1-(4-(4-Methoxyphenyl)pyrimidin-2-yl)-N2-((S)-1-(4-nitrophenyl)piperidin-3-yl)cyclohexane-1,2-diamine] | 241 | – | –
CS(=O)(=O)Nc1cccc(-c2ccnc(N[C@@H]3CCCC[C@H]3N[C@H]3CCCN(c4cnc(C(F)(F)F)nc4)C3)c2)c1 [Example 415] | – | 19 | –
O=[N+]([O-])c1ccc(N2CCC[C@H](N[C@@H]3CCCC[C@H]3Nc3ncc(-c4ccccc4)s3)C2)cc1 [Example 26] | 8 | – | –
C[C@@H](O)c1cccc(-c2ccnc(N[C@@H]3CCCC[C@H]3N[C@H]3CCCN(c4ccc(C(F)(F)F)cc4)C3)c2)c1 [Example 168] | – | – | EC50 [4]: 14 nM
O=[N+]([O-])c1ccc(N2C[C@@H]3C[C@H](N[C@@H]4CCCC[C@H]4Nc4ncc(-c5ccc(O)cc5)o4)[C@H]2C3)cc1 [Example 16, 4-(2-((1R,2R)-2-((1R,4R,6S)-2-(4-Nitrophenyl)-2-azabicyclo[2.2.1]heptan-6-ylamino)cyclohexylamino)oxazol-5-yl)phenol] | 6 | – | –
CCCCNC(=O)c1cccc(-c2ccnc(N[C@@H]3CCCC[C@H]3N[C@H]3CCCN(c4ccc(C(F)(F)F)cc4)C3)c2)c1 [Example 141] | – | – | EC50 [4]: 227 nM
N#Cc1ccc(N2CCC[C@H](N[C@@H]3CCCC[C@H]3Nc3ncc(-c4ccc(OC(F)(F)F)cc4)o3)C2)c(F)c1 [Example 52, 3-Fluoro-4-((S)-3-((1R,2R)-2-(5-(4-(trifluoromethoxy)phenyl)oxazol-2-ylamino)cyclohexylamino)piperidin-1-yl)benzonitrile] | 193 | – | –

Structure (SMILES) | EC50 [1] [nM] | EC50 [3] [nM] | further results
N#Cc1ccc(N[C@@H]2CCCC[C@H]2N[C@H]2CCCN(c3ccc(C(F)(F)F)cc3)C2)nc1 [Example 192] | – | – | EC50 [4]: 284 nM
N#Cc1ccc(N2CCC[C@H](N[C@@H]3CCCC[C@H]3Nc3ncc(-c4ccc(OC(F)(F)F)cc4)o3)C2)cc1F [Example 49, 2-Fluoro-4-((S)-3-((1R,2R)-2-(5-(4-(trifluoromethoxy)phenyl)oxazol-2-ylamino)cyclohexylamino)piperidin-1-yl)benzonitrile bis-trifluoroacetate] | 2 | – | –
N#Cc1ccc(N2CCC[C@H](N[C@@H]3CCCC[C@H]3Nc3cc(-c4ccc(OC(F)F)cc4)ccn3)C2)cc1 [Example 43, 4-((S)-3-((1R,2R)-2-(4-(4-(Difluoromethoxy)phenyl)pyridin-2-ylamino)cyclohexylamino)piperidin-1-yl)benzonitrile tris-trifluoroacetate] | 18 | – | –
N#Cc1ccc(N2CCC[C@H](N[C@@H]3CCCC[C@H]3Nc3nccc(-c4ccccc4)n3)C2)cc1F [Example 47, 2-Fluoro-4-((S)-3-((1R,2R)-2-(4-phenylpyrimidin-2-ylamino)cyclohexylamino)piperidin-1-yl)benzonitrile bis-trifluoroacetate] | 34 | – | –
N#Cc1ccc(N2CCC[C@H](N[C@@H]3CCCC[C@H]3Nc3cc(-n4cccc4)ccn3)C2)cc1 [Example 280] | – | – | EC50 [5]: 43 nM
Cc1nnc(-c2ccc(N3CCC[C@H](N[C@@H]4CCCC[C@H]4Nc4cc(Br)ccn4)C3)cc2)o1 [Example 352] | – | 318 | –
Cc1noc(-c2ccc(N3CCC[C@H](N[C@@H]4CCCC[C@H]4Nc4ncc(-c5cccc(C(N)=O)c5)o4)C3)cc2)n1 [Example 379] | – | 1 | –
Cn1nnc(-c2ccc(N3C[C@@H]4C[C@H](N[C@@H]5CCCC[C@H]5Nc5cc(-c6cccc(C(N)=O)c6)ccn5)[C@H]3C4)cc2)n1 [Example 460] | – | 4 | –
FC(F)(F)c1ccc(N2CCC[C@H](N[C@@H]3CCCC[C@H]3Nc3ncc(-c4cccc(-c5nnn[nH]5)c4)o3)C2)cc1 [Example 122] | – | – | EC50 [4]: 319 nM
FC(F)(F)Oc1ccc(-c2cnc(N[C@@H]3CCCC[C@H]3N[C@H]3CCCN(c4cnc(C(F)(F)F)nc4)C3)o2)cc1 [Example 401] | – | 1480 | –
FC(F)(F)Oc1ccc(-c2cnc(N[C@@H]3CCCC[C@H]3N[C@H]3CCCN(c4ccc5ncnn5c4)C3)o2)cc1 [Example 482] | – | 107 | –
CC(C)(C)COC(=O)Nc1cccc(-c2cnc(N[C@@H]3CCCC[C@H]3N[C@H]3CCCN(c4cnc(C(F)(F)F)nc4)C3)o2)c1 [Example 420] | – | 212 | –
CC(C)(O)c1cccc(-c2cnc(N[C@@H]3CCCC[C@H]3N[C@H]3CCCN(c4ccc(C(F)(F)F)cc4)C3)o2)c1 [Example 170] | – | – | EC50 [4]: 48 nM
FC(F)(F)c1ccc(N2CCC[C@H](N[C@@H]3CCCC[C@H]3Nc3cc(-c4cc[nH]c4)ccn3)C2)cc1 [Example 198] | – | – | EC50 [4]: 67 nM
Cc1nc2ccc(N3CCC[C@H](N[C@@H]4CCCC[C@H]4Nc4ncc(-c5cc(F)c(F)cc5F)o4)C3)cn2n1 [Example 497] | – | 46 | –
O=[N+]([O-])c1ccc(N2CCC[C@H](N[C@@H]3CCCC[C@H]3Nc3nccc(-c4cccc(OC(F)(F)F)c4)n3)C2)cc1 [Example 29, (1R,2R)—N1-((S)-1-(4-Nitrophenyl)piperidin-3-yl)-N2-(4-(3-(trifluoromethoxy)phenyl)pyrimidin-2-yl)cyclohexane-1,2-diamine] | 389 | – | –
NC(=O)c1cccc(-c2ccnc(N[C@@H]3CCCC[C@H]3N[C@H]3CCCN(c4cnc(C(F)(F)F)cn4)C3)c2)c1 [Example 473] | – | 79 | –
FC(F)(F)c1ccc(N2CCC[C@H](N[C@@H]3CCCC[C@H]3Nc3cc(-n4cccc4)ccn3)C2)cc1 [Example 190] | – | – | EC50 [4]: 51 nM
c1ccc(-c2ccnc(N[C@@H]3CCCC[C@H]3N[C@H]3CCCN(c4ccc(-n5cccn5)cc4)C3)n2)cc1 [Example 64, (1R,2R)—N1-((S)-1-(4-(1H-Pyrazol-1-yl)phenyl)piperidin-3-yl)-N2-(4-phenylpyrimidin-2-yl)cyclohexane-1,2-diamine bis-trifluoroacetate] | 89 | – | –
NC(=O)c1cccc(-c2ccnc(N[C@@H]3CCCC[C@H]3N[C@H]3CCCN(c4ncc(C(F)(F)F)cn4)C3)c2)c1 [Example 399] | – | 22 | –
Cc1nc(-c2ccc(N3CCC[C@H](N[C@@H]4CCCC[C@H]4Nc4ncc(-c5cccc(C(=O)O)c5)o4)C3)cn2)no1 [Example 384] | – | – | EC50 [2]: 606 nM
Cn1cnc(-c2ccc(N3CCC[C@H](N[C@@H]4CCCC[C@H]4Nc4cc(-c5cccc(O)c5)ccn4)C3)cc2)n1 [Example 456] | – | 28 | –
